Measured values as given in patent US8916702B2 (priority 2012, dated 2014).
pEC50: −log10 of the molar value.

Tested on: HCV pseudoparticles (genotype 1a HCV E1 and E2 envelope, H77C isolate)
Assay: microbe, parasite or virus in culture
Assay type: cell-based
Conditions: Hepatitis C virus, Huh-7, 48 h, HCV pseudoparticle infection of Huh7 cells, luciferase 2 days after infection; average of duplicates

Compound	pEC50
CC(C)(CNC(=O)C(=O)Nc1ccc2c(c1)Cc1ccccc1-2)CNC(=O)c1ccc(Nc2nc(NC3(c4ccc(Cl)cc4)CC3)nc(OCC(F)(F)F)n2)cc1 [Compound 1570]	10.30

Same assay, conditions: Hepatitis C virus, Huh-7, 48 h, HCV pseudoparticles (genotype 1a, H77C) in Huh7 cells; average of duplicate; luciferase 2 days after infection

Compound	pEC50
COC(=O)[C@@H](CCNC(=O)C(=O)Nc1cccc(OC(F)(F)F)c1)NC(=O)c1ccc(Nc2nc(NC3(c4ccc(Cl)cc4)CC3)nc(OCC(F)(F)F)n2)cc1 [Compound 3577]	9.80

Same assay, conditions: Hepatitis C virus, Huh-7, 48 h, read-out: Activity (EC50 class), HCV pseudoparticle infection of Huh7 cells, luciferase 2 days after infection; EC50 expressed as class A/B

Compound	pEC50
COC(=O)[C@H](CCNC(=O)C(=O)Nc1ccc(-c2ccncc2)cc1)NC(=O)c1ccc(Nc2nc(NC3(c4ccc(Cl)cc4)CC3)nc(OCC(F)(F)F)n2)cc1 [Compound 1517]	8.00 to 11.00
CC(C)(C)OC(=O)NC1CCCC(NC(=O)C(=O)NCC[C@H](NC(=O)c2ccc(Nc3nc(NC4(c5ccc(Cl)cc5)CC4)nc(OCC(F)(F)F)n3)cc2)C(=O)O)C1 (stereo partly shown) [Compound 1111]	8.00 to 11.00
COC(=O)[C@H](CCNC(=O)C(=O)NCc1ccccc1)NC(=O)c1ccc(Nc2nc(NC3(c4ccc(Cl)cc4)CC3)nc(OCC(F)(F)F)n2)cc1 [Compound 1142]	8.00 to 11.00
CC(C)(CNC(=O)C(=O)Nc1ccc2c(c1)Cc1ccccc1-2)CNC(=O)c1ccc(Nc2nc(NC3(c4ccc(Cl)cc4)CC3)nc(OCC(F)(F)F)n2)cc1 [Compound 1570]	8.00 to 11.00
COCC1(CNC(=O)C(=O)NCC[C@@H](NC(=O)c2ccc(Nc3nc(NC4(c5ccc(Cl)cc5)CC4)nc(OCC(F)(F)F)n3)cc2)C(=O)O)CC1 [Compound 1419]	8.00 to 11.00

Same assay, conditions: Hepatitis C virus, Huh-7, 48 h, read-out: Activity (EC50 class), HCV pseudoparticles, Huh7 cells, luciferase 2 days after infection; average of duplicates

Compound	pEC50
Cc1ccc(-c2cccc(NC(=O)C(=O)NCC[C@H](NC(=O)c3ccc(Nc4nc(NC5(c6ccc(Cl)cc6)CC5)nc(OCC(F)(F)F)n4)cc3)C(=O)O)c2)cc1 [Compound 3644]	8.00 to 11.00
NC(=O)c1cccc(NC(=O)C(=O)NC[C@H](NC(=O)c2ccc(Nc3nc(NC4(c5ccc(Cl)cc5)CC4)nc(OCC(F)(F)F)n3)cc2)C(=O)Cl)c1 [Compound 3745]	8.00 to 11.00
COC(=O)[C@H](CNC(=O)C(=O)Nc1ccc(NC(C)=O)nc1)NC(=O)c1ccc(Nc2nc(NC3(c4ccc(Cl)cc4)CC3)nc(OCC(F)(F)F)n2)cc1 [Compound 3706]	8.00 to 11.00
COC(=O)[C@H](CNC(=O)C(=O)Nc1cccc(Oc2ccccn2)c1)NC(=O)c1ccc(Nc2nc(NC3(c4ccc(Cl)cc4)CC3)nc(OCC(F)(F)F)n2)cc1 [Compound 3726]	8.00 to 11.00
O=C(NCC[C@H](NC(=O)c1ccc(Nc2nc(NC3(c4ccc(Cl)cc4)CC3)nc(OCC(F)(F)F)n2)cc1)C(=O)O)C(=O)Nc1cccc(-c2c[nH]cn2)c1 [Compound 3656]	8.00 to 11.00

Same assay, conditions: Hepatitis C virus, Huh-7, read-out: Activity (EC50 class), HCV pseudoparticles (genotype 1a, H77C) in Huh7 cells; EC50 expressed as class A/B

Compound	pEC50
Cc1cc(C)n(-c2ccc(NC(=O)C(=O)NC/C(=N/C(=O)c3ccc(Nc4nc(NC5(c6ccc(Cl)cc6)CC5)nc(OCC(F)(F)F)n4)cc3)C(=O)O)cc2)n1 [Compound 3174]	8.00 to 11.00
COC(=O)[C@@H](CCNC(=O)C(=O)Nc1cccc(OC(F)(F)F)c1)NC(=O)c1ccc(Nc2nc(NC3(c4ccc(Cl)cc4)CC3)nc(OCC(F)(F)F)n2)cc1 [Compound 3577]	8.00 to 11.00
NC(=O)C(=O)N[C@H](CCNC(=O)c1ccc(Nc2nc(NC3(c4ccc(Cl)cc4)CC3)nc(OCC(F)(F)F)n2)cc1)C(=O)O [Compound 3491]	6.00 to 8.00
CC(C)(CNC(=O)C(=O)Nc1ccc(/C=C/c2ccccc2)cc1)CNC(=O)c1ccc(Nc2nc(NC3(c4ccc(Cl)cc4)CC3)nc(OCC(F)(F)F)n2)cc1F [Compound 3564]	8.00 to 11.00
C=Cc1cccc(NC(=O)C(=O)NCC[C@@H](NC(=O)c2ccc(Nc3nc(NC4(c5ccc(Cl)cc5)CC4)nc(OCC(F)(F)F)n3)cc2)C(=O)OC)c1 [Compound 3574]	8.00 to 11.00
COC(=O)[C@H](CNC(=O)C(=O)Nc1ccc(OCC(F)(F)F)cc1)NC(=O)c1ccc(Nc2nc(NC3(c4ccc(Cl)cc4)CC3)nc(OCC(F)(F)F)n2)cc1 [Compound 3096]	8.00 to 11.00
O=C(NCC[C@H](NC(=O)c1ccc(Nc2nc(NC3(c4ccc(Cl)cc4)CC3)nc(OCC(F)(F)F)n2)cc1)C(=O)O)C(=O)Nc1ccc(N2CCCC2=O)cc1 [Compound 3227]	8.00 to 11.00
CC(C)(CNC(=O)C(=O)Nc1ccc(F)cc1Cl)CNC(=O)c1ccc(Nc2nc(NC3(c4ccc(Cl)cc4)CC3)nc(OCC(F)(F)F)n2)cc1 [Compound 3405]	8.00 to 11.00
CC(C)(CNC(=O)C(=O)Nc1nc2ccccc2s1)CNC(=O)c1ccc(Nc2nc(NC3(c4ccc(Cl)cc4)CC3)nc(OCC(F)(F)F)n2)cc1 [Compound 3376]	8.00 to 11.00
CC(C)c1ccc(NC(=O)C(=O)NCC[C@H](NC(=O)c2ccc(Nc3nc(NC4(c5ccc(Cl)cc5)CC4)nc(OCC(F)(F)F)n3)cc2)C(=O)O)cc1 [Compound 3550]	8.00 to 11.00
